Source: BindingDB's records for doi:10.1021/jm0304358 (Yale University, 2004)

molecular target: Cyclin-dependent kinase 2 (Homo sapiens, UniProt P24941); assay: Evaluated for inhibition of human cyclin dependent kinase 2 (CDK2)

Row | SMILES | IC50
1 | Cc1cc(Cl)cc2c1NC(=O)C2C=Nc1ccc(S(N)(=O)=O)cc1 (stereo not given) | > 10000 nM
2 | Cc1cccc2c1NC(=O)C2C=Nc1ccc(S(N)(=O)=O)cc1 (stereo not given) | > 10000 nM
3 | CN(C)c1ccc2c(c1)C(C=Nc1ccc(S(N)(=O)=O)cc1)C(=O)N2 (stereo not given) [4-({[5-(Dimethylamino)-2-oxo-1,2-dihydro-3H-indol-3-ylidene]methyl}amino)benzenesulfonamide] | 310 nM
4 | O=C1Nc2ccc3ncsc3c2C1C=Nc1ccc(S(=O)(=O)NCc2ccccc2)cc1 (stereo not given) [N-Benzyl-4-{[(7-oxo-6,7-dihydro-8H-[1,3]thiazolo[5,4-e]-indol-8-ylidene)methyl]amino}benzenesulfonamide] | 5.6 nM
5 | CNS(=O)(=O)c1ccc(N=CC2C(=O)Nc3ccc4ncsc4c32)cc1 (stereo not given) [N-Methyl-4-{[(7-oxo-6,7-dihydro-8H-[1,3]thiazolo[5,4-e]-indol-8-ylidene)methyl]amino}benzenesulfonamide] | 5.6 nM
